The numbers were not newly measured in publication PMC5742115, “Pharmacophore Modeling and in Silico/in Vitro Screening for Human Cytochrome P450 11B1 and Cytochrome P450 11B2 Inhibitors” (Frontiers in Chemistry, 2017), which cites them from elsewhere.

SMILES strings stand for the structures. Where two headings read alike, the source gives them in different places. A value given as a limit tells only on which side of the number the result lay.

In one data set the test system is CYP11B2. Conditions: 2013, cited from earlier work.
The next data set has as its system CYP11B1. Conditions: 2013, cited from earlier work.
[1] abbreviates: reported activity, supplementary Table 1, ref Gobbi et al., read-out: CYP11B2 IC50.
Where [2] appears, read: reported activity, supplementary Table 1, ref Gobbi et al., read-out: CYP11B1 IC50.
[3] abbreviates: reported activity, supplementary Table 1, ref Emmerich et al., read-out: CYP11B2 IC50.
[4] abbreviates: reported activity, supplementary Table 1, ref Emmerich et al., read-out: CYP11B1 IC50.
The mark [5] stands for this setting: reported activity, supplementary Table 1, ref Pinto-Bazurco Mendieta et al., read-out: CYP11B2 IC50.
The mark [6] stands for this setting: reported activity, supplementary Table 1, ref Pinto-Bazurco Mendieta et al., read-out: CYP11B1 IC50.
[7] abbreviates: reported activity, supplementary Table 1, ref Meredith et al., read-out: CYP11B2 IC50.
[8] abbreviates: reported activity, supplementary Table 1, ref Meredith et al., read-out: CYP11B1 IC50.
Setting [9] is: Figure 2, ref Yin et al., 2012, Emmerich et al., Gobbi et al., 2016, read-out: hCYP11B2 IC50.
[10] abbreviates: Figure 2, ref Yin et al., 2012, Emmerich et al., Gobbi et al., 2016, read-out: hCYP11B1 IC50.
Setting [11] is: Figure 3, training compounds, ref Meredith et al., read-out: hCYP11B2 IC50.
The mark [12] stands for this setting: Figure 3, training compounds, ref Meredith et al., read-out: hCYP11B1 IC50.

For orientation: IC50 means the midpoint of a concentration-inhibition curve. `O=c1c2ccccc2oc2c(I)ccc(Cn3ccnc3)c12` [CHEMBL2333327]: the concentration for half-maximal inhibition (IC50) in the data set on CYP11B2 (setting [1]) is 23.5 nM; with CYP11B1 (setting [2]), 19.2 nM.

With `COc1ccc(Cn2ccnc2)c2c(=O)c3ccccc3oc12` [CHEMBL2333329], the IC50 in the data set on CYP11B2 (setting [1]) is 41.1 nM; in the data set on CYP11B1 (setting [2]), 80.1 nM.

For the compound `CCOc1ccc(Cn2ccnc2)c2c(=O)c3ccccc3oc12` [CHEMBL2333330], the values for the IC50 in the data set on CYP11B2 (setting [1]) and in the data set on CYP11B1 (setting [2]) were 14.8 nM and 25.4 nM, respectively.

Regarding `CC(C)Oc1ccc(Cn2ccnc2)c2c(=O)c3ccccc3oc12` [CHEMBL2333331], the IC50 in the data set on CYP11B2 (setting [1]) was 19.1 nM; in the data set on CYP11B1 (setting [2]), 92.5 nM.

As for `CC(C)CCOc1ccc(Cn2ccnc2)c2c(=O)c3ccccc3oc12` [CHEMBL2333332], the values for the half-inhibitory concentration (IC50) in the data set with CYP11B2 (setting [1]) and in the data set with CYP11B1 (setting [2]) were 25.2 nM and 24.4 nM, respectively.

`CCC(C)Oc1ccc(Cn2ccnc2)c2c(=O)c3ccccc3oc12` (stereo not shown) [CHEMBL2333333]: the figures for the IC50 in the data set with CYP11B2 (setting [1]) and with CYP11B1 (setting [2]) were 15.3 nM and 13.1 nM, respectively.

With `O=c1c2ccccc2oc2c(OCC3CC3)ccc(Cn3ccnc3)c12` [CHEMBL2333334], the IC50 in the data set with CYP11B2 (setting [1]) is 24.1 nM; in the data set on CYP11B1 (setting [2]) it was 5.5 nM.

Consider `O=c1c2ccccc2oc2c(OC3CCCC3)ccc(Cn3ccnc3)c12` [CHEMBL2333335], for which the figures for the IC50 in the data set on CYP11B2 (setting [1]) and in the data set on CYP11B1 (setting [2]) were 99.7 nM and 268 nM, respectively.

For the compound `Cc1cncc(Cc2ccc(-c3ccccc3)nc2)c1` [CHEMBL2417553], the IC50 in the data set with CYP11B2 (setting [3]) was 33 nM; with CYP11B1 (setting [4]), 2 nM.

For the compound `FC(F)(F)c1cncc(Cc2ccc(-c3ccccc3)nc2)c1` [CHEMBL2417613], the values for the IC50 in the data set on CYP11B2 (setting [3]) and with CYP11B1 (setting [4]) were 115 nM and 38 nM, respectively.

For the compound `COc1cncc(Cc2ccc(-c3ccccc3)nc2)c1` [CHEMBL2417614], the IC50 in the data set on CYP11B2 (setting [3]) was 25 nM; in the data set on CYP11B1 (setting [4]), 5 nM.

`Oc1cncc(Cc2ccc(-c3ccccc3)nc2)c1` [CHEMBL2417615]: the half-inhibitory concentration (IC50) in the data set with CYP11B2 (setting [3]) is 836 nM; with CYP11B1 (setting [4]), 51 nM.

For `c1ccc(-c2cncc(Cc3ccc(-c4ccccc4)nc3)c2)cc1` [CHEMBL2417616], the half-inhibitory concentration (IC50) with CYP11B2 (setting [3]) was 0.5 nM; with CYP11B1 (setting [4]), 1.3 nM.

As for `CC(c1ccc(-c2ccccc2)nc1)n1ccnc1` (stereo not shown) [CHEMBL2417619], the IC50 in the data set on CYP11B2 (setting [3]) was 200 nM; in the data set with CYP11B1 (setting [4]) it was 33 nM.

Consider `CCC(c1ccc(-c2ccccc2)nc1)n1ccnc1` (stereo not shown) [CHEMBL2417620], for which the IC50 in the data set on CYP11B2 (setting [3]) is 92 nM; in the data set on CYP11B1 (setting [4]), 28 nM.

Take `c1ccc(-c2ccc(C(C3CC3)n3ccnc3)cn2)cc1` (stereo not shown) [CHEMBL2417621]: the IC50 was 25 nM in the data set on CYP11B2 (setting [3]) and 21 nM with CYP11B1 (setting [4]).

For `c1ccc(-c2ccc(C(c3ccco3)n3ccnc3)cn2)cc1` (stereo not shown) [CHEMBL2417623], the IC50 in the data set on CYP11B2 (setting [3]) was 74 nM; in the data set on CYP11B1 (setting [4]), 69 nM.

For `CC(c1ccc(-c2ccsc2)nc1)n1ccnc1` (stereo not shown) [CHEMBL2417625], the values for the IC50 with CYP11B2 (setting [3]) and with CYP11B1 (setting [4]) were 151 nM and 21 nM, respectively.

Regarding `c1cn(C(c2ccc(-c3ccsc3)nc2)C2CC2)cn1` (stereo not shown) [CHEMBL2417626], the IC50 was 31 nM in the data set with CYP11B2 (setting [3]) and 11 nM with CYP11B1 (setting [4]).

For `CC(c1ccc(-c2cccc3ccccc23)nc1)n1ccnc1` (stereo not shown) [CHEMBL2417627], the IC50 in the data set on CYP11B2 (setting [3]) was 273 nM; in the data set with CYP11B1 (setting [4]), 60 nM.

As to `c1ccc(-c2ncc(Cn3ccnc3)c3ccccc23)cc1` [CHEMBL2417632], the IC50 in the data set with CYP11B2 (setting [3]) is 302 nM; with CYP11B1 (setting [4]), 87 nM.

`c1ccc(-c2ccc(Cc3cccnc3)cn2)cc1` [CHEMBL2417633]: the concentration for half-maximal inhibition (IC50) was 322 nM in the data set with CYP11B2 (setting [3]) and 32 nM with CYP11B1 (setting [4]).

In the case of `c1ccc(-c2ccc(Cc3ccncc3)cn2)cc1` [CHEMBL2417634], the half-inhibitory concentration (IC50) is 621 nM in the data set with CYP11B2 (setting [3]) and 98 nM in the data set with CYP11B1 (setting [4]).

As for `c1ccc(-c2ccc(Cc3cncc4ccccc34)cn2)cc1` [CHEMBL2417635], the half-inhibitory concentration (IC50) in the data set with CYP11B2 (setting [3]) was 23 nM; in the data set with CYP11B1 (setting [4]), 6 nM.

Consider `Cc1ccncc1Cc1ccc(-c2ccccc2)nc1` [CHEMBL2417637], for which the half-inhibitory concentration (IC50) in the data set on CYP11B2 (setting [3]) was 19 nM; in the data set with CYP11B1 (setting [4]), 8 nM.

With `Oc1ccc2ccc(-c3cccnc3)c(Cl)c2c1` [CHEMBL2420674], the IC50 in the data set with CYP11B2 (setting [5]) is 26 nM; in the data set with CYP11B1 (setting [6]), 235 nM.

Consider `COc1ccc2ccc(-c3cccnc3)c(F)c2c1` [CHEMBL2420675], for which the IC50 with CYP11B2 (setting [5]) is 17 nM; in the data set on CYP11B1 (setting [6]), 1610 nM.

For `Oc1ccc2ccc(-c3cccnc3)c(F)c2c1` [CHEMBL2420676], the concentration for half-maximal inhibition (IC50) was 30 nM in the data set on CYP11B2 (setting [5]) and 1160 nM with CYP11B1 (setting [6]).

Take `COc1ccc2ccc(-c3cccnc3)c(Cl)c2c1F` [CHEMBL2420677]: the half-inhibitory concentration (IC50) is 28 nM in the data set on CYP11B2 (setting [5]) and 2940 nM in the data set on CYP11B1 (setting [6]).

Regarding `Oc1ccc2ccc(-c3cccnc3)c(Cl)c2c1F` [CHEMBL2420678], the IC50 was 25 nM in the data set with CYP11B2 (setting [5]) and 224 nM in the data set on CYP11B1 (setting [6]).

Consider `COc1ccc2ccc(-c3cncc(F)c3)c(Cl)c2c1` [CHEMBL2420679], for which the concentration for half-maximal inhibition (IC50) in the data set on CYP11B2 (setting [5]) was 38 nM; in the data set with CYP11B1 (setting [6]) it was 1420 nM.

`Oc1ccc2ccc(-c3cncc(F)c3)c(Cl)c2c1` [CHEMBL2420680]: the results for the half-maximal inhibitory concentration (IC50) in the data set with CYP11B2 (setting [5]) and in the data set with CYP11B1 (setting [6]) were 33 nM and 450 nM, respectively.

For the compound `COc1cncc(-c2ccc3ccc(OC)cc3c2Cl)c1` [CHEMBL2420681], the half-inhibitory concentration (IC50) in the data set on CYP11B2 (setting [5]) was 24 nM; in the data set on CYP11B1 (setting [6]) it was 447 nM.

Take `COc1cncc(-c2ccc3ccc(O)cc3c2Cl)c1` [CHEMBL2420682]: the IC50 in the data set on CYP11B2 (setting [5]) was 15 nM; in the data set with CYP11B1 (setting [6]) it was 245 nM.

In the case of `COc1ccc2ccc(-c3cncc(O)c3)c(Cl)c2c1` [CHEMBL2420683], the half-inhibitory concentration (IC50) is 13 nM in the data set with CYP11B2 (setting [5]) and 7100 nM in the data set on CYP11B1 (setting [6]).

`Oc1cncc(-c2ccc3ccc(O)cc3c2Cl)c1` [CHEMBL2420684]: the figures for the IC50 in the data set on CYP11B2 (setting [5]) and in the data set on CYP11B1 (setting [6]) were 27 nM and 2840 nM, respectively.

With `COc1ccc2ccc(-c3cncnc3)c(Cl)c2c1` [CHEMBL2420685], the IC50 in the data set with CYP11B2 (setting [5]) was 72 nM; in the data set on CYP11B1 (setting [6]), 12300 nM.

Consider `Oc1ccc2ccc(-c3cncnc3)c(Cl)c2c1` [CHEMBL2420686], for which the IC50 was 22 nM in the data set on CYP11B2 (setting [5]) and 2430 nM in the data set with CYP11B1 (setting [6]).

For the compound `COc1ccc2ccc(-c3cncc4ccccc34)c(Cl)c2c1` [CHEMBL2420687], the concentration for half-maximal inhibition (IC50) with CYP11B2 (setting [5]) is 54 nM; in the data set on CYP11B1 (setting [6]) it was 362 nM.

Regarding `Oc1ccc2ccc(-c3cncc4ccccc34)c(Cl)c2c1` [CHEMBL2420688], the IC50 with CYP11B2 (setting [5]) is 66 nM; in the data set on CYP11B1 (setting [6]), 238 nM.

For `N#Cc1ccc([C@H]2CCCCc3cncn32)c(F)c1` [CHEMBL3099683], the IC50 is 0.3 nM in the data set on CYP11B2 (setting [7]) and 1 nM in the data set on CYP11B1 (setting [8]).

For `N#Cc1ccc([C@@]2(C(=O)OCc3ccc(F)cc3)CCc3cncn32)c(Cl)c1` [CHEMBL3099689], the IC50 is 3.8 nM with CYP11B2 (setting [7]) and 0.1 nM in the data set on CYP11B1 (setting [8]).

For `N#Cc1ccc([C@H]2CCc3cncn32)c(F)c1` [CHEMBL3099695], the IC50 in the data set on CYP11B2 (setting [7]) was […]; with CYP11B1 (setting [8]) it was […].

As for `Cc1cc(C#N)ccc1[C@H]1CCc2cncn21` [CHEMBL3099696], the values for the IC50 with CYP11B2 (setting [7]) and in the data set with CYP11B1 (setting [8]) were 1.5 nM and 0.9 nM, respectively.

As for `N#Cc1ccc([C@H]2CCCCc3cncn32)c(-c2ccc(F)cc2)c1` [CHEMBL3099704], the 50% inhibitory concentration (IC50) with CYP11B2 (setting [7]) is 0.3 nM; in the data set on CYP11B1 (setting [8]) it was 0.4 nM.

`Cc1cncc(Cc2ccc(-c3ccccc3)nc2)c1` [Compound 1]: the IC50 in the data set on CYP11B2 (setting [9]) is 33 nM; in the data set on CYP11B1 (setting [10]), 2 nM.

Consider `O=C1CCc2cc(C(C3CC3)n3ccnc3)cc3c2N1CC3` (stereo not shown) [Compound 2], for which the values for the IC50 in the data set on CYP11B2 (setting [9]) and in the data set with CYP11B1 (setting [10]) were 24 nM and 2.2 nM, respectively.

As to `O=c1c(Cn2ccnc2)c(-c2ccccc2)oc2cc(F)ccc12` [Compound 3], the 50% inhibitory concentration (IC50) with CYP11B2 (setting [9]) is 94.9 nM; with CYP11B1 (setting [10]) it was 9.7 nM.

Consider `N#Cc1ccc([C@@H]2CCCCc3cncn32)c(-c2ccc(F)cc2)c1` [Compound 4], for which the half-inhibitory concentration (IC50) with CYP11B2 (setting [11]) is 0.3 nM; in the data set with CYP11B1 (setting [12]), 0.4 nM.

Turning to `N#Cc1ccc(C2(C(=O)OCc3ccc(F)cc3)CCc3cncn32)c(Cl)c1` (stereo not shown) [Compound 5], the concentration for half-maximal inhibition (IC50) in the data set with CYP11B2 (setting [11]) is 3.8 nM; with CYP11B1 (setting [12]), less than 0.1 nM.
